Key:
[1] = Human liver microsome (HLM) metabolic stability assay; format: in vitro ADME; conditions: human liver microsomes, 1 uM compound, 37° C., 60 min; % hepatic blood flow
Method: Assessment of Metabolic Stability
The 5 time point, high-throughput human liver microsome (HLM) metabolic stability assay is designed to determine in vitro compound metabolism. Compounds are incubated with HLMs at a concentration of 1 uM, at 37° C., for a total of 60 min. The percent of compound remaining at 5, 15, 30, and 60 min is used to calculate the t1/2 (min), CLint (mL/min/kg), CLh (mL/min/kg), and % Qh. The assay is based on a 96-well format and can accommodate up to 92 compounds per plate (n=1).
Using the 96-well multi-channel head, the Biomek FX, equipped with a Peltier heating block/shaker, is programmed to accomplish the following steps: • 1. Pipette 175 uL of 1.15 mg/mL microsomes into each of the 96 conical inserts (Analytical Sales and Products, catalog number 96PL05) that fit into the plate of the Peltier heating block/shaker (the incubation plate) • 2. Add 5 uL of compounds from the assay plate to the microsomes and shake the mixture at 600 rpm at 42.1° C. for 10 min (a setting of 42.1° C. on the Peltier is required for the samples to incubate at 37° C.) • 3. After 10 min, prompt the user to add the NADPH plate to the deck and add 20 uL from the NADPH plate to the incubation plate to start the reaction • 4. Add 215 uL of 100%, cold acetonitrile containing an internal standard(s) to a 0 minute, 5 minute, 15 minute, 30 minute, and 60 minute “quench” plate • 5. At 0 min, 5 min, 15 min, 30 min, and 60 min into the incubation, aspirate 12 uL from the incubation mixture and add it to the quench solution to stop the reaction • 6. Add 185 uL HPLC grade water to each well of the 0, 5, 15, 30 and 60 minute quench plates to dilute compounds to the appropriate concentration for the mass spectrometer
After all time points are collected, the quench plates are sealed with 96-well pierceable plate mats or heat sealing foil and centrifuged at 3000 rpm for 15 min to pellet the microsomes.
The plates are analyzed using LC/MS/MS with electron spray ionization (ESI) and the previously determined MRM transitions. The LC method includes the following parameters:
Using an Excel template in Activitybase, the peak areas corresponding to 5, 15, 30 and 60 min are compared to the peak area at 0 min to calculate the percent of remaining compound using the following equation:
Percent compound remaining=(AUC at Time t min/AUC at Time 0 min)×100 where t=0, 5, 15, 30 or 60 min.
Time (min) is plotted against the natural logarithm (Ln) of the percent compound remaining to determine the slope. The slope is used to calculate t1/2 (min) using the equation, t1/2=0.693/slope.
Clint, Intrinsic Clearance

RORγ = target: T1, RORγ (Homo sapiens, UniProt P51449); experiment: RORγ Reporter Gene Assay (RGA), luciferase transactivation in transiently transfected HEK 293 cells; format: cell-based; conditions: HEK 293 cells cotransfected with pGL4.3 luc2P/GAL4UAS and pBIND Gal4DBD hRORC LBD; 20-24 h incubation
T1 construct: expressed in transfected cells; host or cells: HEK 293 cells, transiently cotransfected with pGL4.3 luc2P/GAL4UAS/Hygro reporter
T1 sequence (P51449 269-508 limits assumed): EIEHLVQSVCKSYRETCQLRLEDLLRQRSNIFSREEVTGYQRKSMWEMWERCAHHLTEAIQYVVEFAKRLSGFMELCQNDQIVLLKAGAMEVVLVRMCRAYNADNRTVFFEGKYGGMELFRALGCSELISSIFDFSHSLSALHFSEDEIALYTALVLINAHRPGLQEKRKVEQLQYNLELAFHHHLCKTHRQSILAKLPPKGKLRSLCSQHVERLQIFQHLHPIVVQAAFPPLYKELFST
Method: Reporter Gene Assay (RGA)
A nuclear receptor transactivation assay is performed to quantitate the ability of test compounds to inhibit RORγ transactivation of a luciferase reporter. A similar assay is described in: Khan et al., Bioorganic & Medicinal Chemistry Letters 23 (2013), 532-536. The system uses transiently transfected HEK 293 cells cotransfected with two plasmids (pGL4.3, luc2P/GAL4UAS/Hygro, and pBIND, Gal4DBD hRORC LBD1-3). The positive control is co-transiently transfected with both plasmids, and the negative control contains the pGL4.3 promoter sequence. Assays are assembled in 384 well plates where transiently transfected cells and test compound at varying concentrations are incubated for 20-24 h. The next day, assays plates are taken out and equilibrated at RT for 20-30 minutes. Bright-Glo™ Luciferase Assay System is used to detect Luciferase production. After addition of Bright GLO detection reagent, the plates are incubated at RT for 20 minutes. The plates are read on an Envision plate reader to measure luminescence signal. The RLU signal is converted to POC relative to control and blank wells.
Compound Dilution Buffer:
Bright Glo Luciferase Assay System: Promega #E2620
Thaw lysis buffer provided in kit, add 100 mL lysis buffer to substrate powder.

| HLM (% Qh) [1] [% Qh] | IC50 (RORγ) [nM] | SMILES |
| --- | --- | --- |
| 25 | 64 | CCS(=O)(=O)c1ccc(CNc2nc3c(C)nc(-c4c(OC)ncnc4C4CC4)nc3n([C@@H](C)C3CC3)c2=O)cn1 [Example 66] |
| <24 | 178 | CCS(=O)(=O)c1cnc(CNc2nc3c(C)nc(-c4c(C)ncnc4C4CC4)nc3n([C@@H](C)C(F)(F)F)c2=O)nc1 [Example 23] |
| <24 | 270 | CC[C@H](C)n1c(=O)c(NCc2ccc(S(N)(=O)=O)cn2)nc2c(C)nc(-c3c(C)ncnc3C3CC3)nc21 [Example 85] |
| <24 | 87 | CCS(=O)(=O)c1cnc(CNc2nc3c(C)nc(-c4c(C)ncnc4C4CC4)nc3n([C@@H](C)C3CC3)c2=O)nc1 [Example 6] |
| 27 | 510 | COc1ncnc(C2CC2)c1-c1nc(C)c2nc(NCc3ccc(S(C)(=N)=O)cn3)c(=O)n([C@@H](C)C(F)(F)F)c2n1 (single isomer, unassigned) [Example 105b] |
| 56 | 1050 | CC[C@@H](C)n1c(=O)c(NCc2ccc(S(C)(=O)=O)cn2)nc2c(COC(C)=O)nc(-c3c(C)ncnc3C3CC3)nc21 [Example 47] |
| 25 | 210 | CCS(=N)(=O)c1ccc(CNc2nc3c(C)nc(-c4c(C)ncnc4C4CC4)nc3n([C@@H](C)C(F)(F)F)c2=O)cc1 (single isomer, unassigned) [Example 34a] |
| <24 | 88 | CC[C@@H](C)n1c(=O)c(NCc2ccc(S(=O)(=O)CC)nc2)nc2c(C)nc(-c3c(OC)ncnc3C3CC3)nc21 [Example 3] |
| <24 | 140 | CC[C@H](C)n1c(=O)c(NCc2ccc(S(C)(=O)=O)nc2)nc2c(C)nc(-c3c(C)ncnc3C3CC3)nc21 [Example 12] |
| <24 | 110 | CC[C@@H](C)n1c(=O)c(NCc2ccc(S(C)(=O)=O)cn2)nc2c(C)nc(-c3c(OC)ncnc3C3CC3)nc21 [Example 2] |
| <24 | 1300 | COc1ncnc(C2CC2)c1-c1nc(C)c2nc(NCc3ccc(S(N)(=O)=O)cn3)c(=O)n(CC(C)C)c2n1 [Example 70] |
| <24 | 255 | CCS(=O)(=O)c1ccc(CNc2nc3c(C)nc(-c4c(OC)ncnc4C4CC4)nc3n(CC(C)C)c2=O)nc1 [Example 80] |
| 33 | 195 | CC[C@H](C)n1c(=O)c(NCc2ccc(S(C)(=N)=O)cc2)nc2c(C)nc(-c3c(C)ncnc3C3CC3)nc21 (stereo partly shown) [Example 84] |
| <24 | 275 | CCS(=O)(=O)c1ccc(CNc2nc3c(C)nc(-c4c(OC)ncnc4C4CC4)nc3n(CC(C)C)c2=O)cn1 [Example 78] |
| <24 | 455 | Cc1ncnc(C2CC2)c1-c1nc(C)c2nc(NCc3cnc(S(C)(=O)=O)cn3)c(=O)n([C@@H](C)C(F)(F)F)c2n1 [Example 37] |
| <24 | 500 | CC[C@@H](C)n1c(=O)c(NCc2ncc(S(C)(=O)=O)cn2)nc2c(C)nc(-c3c(C)ncnc3C3CC3)nc21 [Example 57] |
| 39 | 130 | COc1ncnc(C2CC2)c1-c1nc(C)c2nc(NCc3ccc(S(C)(=O)=O)cn3)c(=O)n([C@@H](C)C(F)(F)F)c2n1 [Example 17] |

| HLM (% Qh) [1] [% Qh] | IC50 (RORγ) [nM] | SMILES |
| --- | --- | --- |
| <24 | 130 | CCS(=O)(=O)c1ccc(CNc2nc3c(C)nc(-c4c(C)ncnc4C4CC4)nc3n([C@@H](C)C(F)(F)F)c2=O)nc1 [Example 79] |
| <24 | 255 | Cc1ncnc(C2CC2)c1-c1nc(C)c2nc(NCc3ccc(S(C)(=N)=O)cc3)c(=O)n([C@@H](C)C(F)(F)F)c2n1 (single isomer, unassigned) [Example 91b] |
| <24 | 71 | CC[C@H](C)n1c(=O)c(NCc2ccc(S(=O)(=O)CC)cn2)nc2c(C)nc(-c3c(OC)ncnc3C3CC3)nc21 [Example 58] |
| 27 | 125 | COc1ncnc(C2CC2)c1-c1nc(C)c2nc(NCc3ccc(S(N)(=O)=O)cn3)c(=O)n([C@@H](C)C3CC3)c2n1 [Example 62] |
| <24 | 75 | COc1ncnc(C2CC2)c1-c1nc(C)c2nc(NCc3ccc(S(C)(=O)=O)nc3)c(=O)n([C@@H](C)C3CC3)c2n1 [Example 8] |
| <24 | 140 | CCS(=O)(=O)c1cnc(CNc2nc3c(C)nc(-c4c(OC)ncnc4C4CC4)nc3n([C@@H](C)C(F)(F)F)c2=O)nc1 [Example 22] |
| <24 | 730 | Cc1ncnc(C2CC2)c1-c1nc(C)c2nc(NCc3ccc(S(C)(=N)=O)cn3)c(=O)n([C@@H](C)C3CC3)c2n1 (single isomer, unassigned) [Example 43a] |
| 25 | 170 | CC[C@@H](C)n1c(=O)c(NCc2ccc(S(=N)(=O)CC)cc2)nc2c(C)nc(-c3c(C)ncnc3C3CC3)nc21 (single isomer, unassigned) [Example 26b] |
| 29 | 175 | Cc1ncnc(C2CC2)c1-c1nc(C)c2nc(NCc3ccc(S(C)(=O)=O)nc3)c(=O)n([C@@H](C)C(F)(F)F)c2n1 [Example 20] |
| <24 | 890 | COc1ncnc(C2CC2)c1-c1nc(C)c2nc(NCc3ccc(S(C)(=N)=O)cn3)c(=O)n([C@@H](C)C(F)(F)F)c2n1 (single isomer, unassigned) [Example 105a] |
| <24 | 70 | Cc1ncnc(C2CC2)c1-c1nc(C)c2nc(NCc3ccc(S(C)(=O)=O)cn3)c(=O)n([C@@H](C)C3CC3)c2n1 [Example 9] |
| <24 | 280 | Cc1ncnc(C2CC2)c1-c1nc(C)c2nc(NCc3ccc(S(N)(=O)=O)cn3)c(=O)n([C@@H](C)C(F)(F)F)c2n1 [Example 96] |
| <24 | 295 | Cc1ncnc(C2CC2)c1-c1nc(C)c2nc(NCc3ccc(S(C)(=N)=O)cc3)c(=O)n([C@@H](C)C(F)(F)F)c2n1 (single isomer, unassigned) [Example 91a] |
| <24 | 535 | CCS(=N)(=O)c1ccc(CNc2nc3c(C)nc(-c4c(C)ncnc4C4CC4)nc3n([C@@H](C)C(F)(F)F)c2=O)nc1 (single isomer, unassigned) [Example 102a] |
| <24 | 260 | CCS(=N)(=O)c1ccc(CNc2nc3c(C)nc(-c4c(C)ncnc4C4CC4)nc3n([C@@H](C)C3CC3)c2=O)cc1 (single isomer, unassigned) [Example 36a] |
| <24 | 77 | CCS(=O)(=O)c1ccc(CNc2nc3c(C)nc(-c4c(C)ncnc4C4CC4)nc3n([C@@H](C)C3CC3)c2=O)cn1 [Example 74] |
| <24 | – | CCS(=O)(=O)c1ccc(CNc2nc3c(C)nc(-c4c(C)ncnc4C4CC4)nc3n([C@@H](C)C3CC3)c2=O)nc1 [Example 68] |
